These results are taken from paper PMC8179679 (Chemical Science, 2021).

Broadly, the Kd is the free concentration of one partner at which half of the binding sites on the other are occupied at equilibrium, for simple one-to-one binding.

For one test, the system named is MDM2. The conditions noted are these: method not stated; cited from earlier work.
For another test, the target named is MDM2 (residues 3–109) (Homo sapiens, UniProt Q00987). The test can be described thus: aerolysin nanopore detection of peptide/MDM2 interaction. In kind it is binding.
A further test has as its target aerolysin nanopore (Aeromonas hydrophila, UniProt P09167). The test can be described thus: aerolysin nanopore single-channel recording of free analyte.
The subject of test [1] is E5-p53TAD1/MDM2 interaction. The conditions noted are these: for number of translocation events, % of free E5-p53TAD1 peptide: molar ratio 1 : 3 : 5; for number of translocation events N after inhibitor addition: molar ratio 1 : 3 : 5 (peptide : MDM2 : inhibitor), 10 min-current trace.

Where no end group is shown, it is not given here.

Sequence of aerolysin nanopore (P09167 24-445 limits assumed): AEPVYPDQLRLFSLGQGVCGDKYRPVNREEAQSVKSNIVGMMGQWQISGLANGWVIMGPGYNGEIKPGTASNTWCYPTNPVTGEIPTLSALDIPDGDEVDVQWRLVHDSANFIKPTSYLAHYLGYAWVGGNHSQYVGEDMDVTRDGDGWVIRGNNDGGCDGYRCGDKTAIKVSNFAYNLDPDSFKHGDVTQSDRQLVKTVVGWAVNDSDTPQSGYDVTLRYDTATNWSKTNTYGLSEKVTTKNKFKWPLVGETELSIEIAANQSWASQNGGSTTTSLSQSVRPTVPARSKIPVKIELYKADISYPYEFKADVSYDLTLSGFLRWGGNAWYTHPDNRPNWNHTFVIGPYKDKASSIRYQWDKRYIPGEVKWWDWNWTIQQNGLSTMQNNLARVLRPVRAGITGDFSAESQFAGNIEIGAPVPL
Sequence of MDM2 (residues 3–109) (Q00987 3-109): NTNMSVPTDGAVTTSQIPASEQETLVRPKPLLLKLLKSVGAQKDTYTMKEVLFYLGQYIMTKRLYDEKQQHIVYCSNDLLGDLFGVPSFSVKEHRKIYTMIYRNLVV

With `CN[C@@H](C)C(=O)N[C@H](C(=O)N1CCC[C@H]1c1nc(C(=O)c2ccc(F)cc2)cs1)C1CCCCC1` [LCL161], in the test on MDM2, the “MDM2 binding (in words)” value is “does not bind to MDM2”.

In turn, EEEEESQETFSDLWKLLPEN [E5-p53TAD1] yielded a dissociation constant Kd at MDM2 (residues 3–109) of 1.07 ± 0.09 µM. For the same molecule, the “dwell time of extraordinarily long-lived current blockage” value at MDM2 (residues 3–109) (E5-p53TAD1/MDM2 complex, 140 mV) is 0.1 s ∼ tens of min. The “number of nanopore events N” value on aerolysin nanopore (free E5-p53TAD1 peptide, 10 min-current trace) turned out to be 1573. In addition, the “dwell time of short-lived translocation / nanopore events” value at aerolysin nanopore (free peptide) is listed as < 10^2 ms. In addition, at aerolysin nanopore (free peptide, 140 mV, single exponential fit), the “mean dwell time td” value was about 0.8 ms.

In the case of `COc1ccc(C2=N[C@@H](c3ccc(Cl)cc3)[C@@H](c3ccc(Cl)cc3)N2C(=O)N2CCNC(=O)C2)c(OC(C)C)c1` [Nutlin-3], in test [1], the “number of translocation events, % of free E5-p53TAD1 peptide” value is about 61.3% and the “number of translocation events N after inhibitor addition” value is listed as 965.

As to `CC(C)[C@@H](CS(=O)(=O)C(C)C)N1C(=O)[C@@](C)(CC(=O)O)C[C@H](c2cccc(Cl)c2)[C@H]1c1ccc(Cl)cc1` [AMG232], in test [1], the “number of translocation events, % of free E5-p53TAD1 peptide” value is about 99.8% and the “number of translocation events N after inhibitor addition” value is reported as 1570.
